Assay results published in paper PMC10998878, “Inhibition of acyl-CoA binding protein (ACBP) by means of a GABAARγ2-derived peptide” (Cell Death & Disease, 2024).

System: C57BL/6 mice
Experiment: Concanavalin A-induced acute liver injury
Assay type: in vivo, mouse
Settings: C57BL/6 male mice, peptide 5 mg/kg i.v. 90 min before concanavalin A 12 mg/kg i.v.
Protocol: GABAARγ2 peptides (5 mg/kg, i.v., dissolved in DMSO) were injected in 12-week-old C57BL/6 male mice 90 min before the injection of 12 mg/kg Concanavalin A (ConA, i.v., Sigma Aldrich, # C5275).
Fig. 7 In vivo inhibition of ACBP/DBI function by the GABAARγ2-derived eicosapeptide. A, B Appetite stimulation by ACBP/DBI. RecACBP/DBI alone or combined with GABAARγ2-derived eicosapeptides (EP) (WT or F77I) was administered in vivo by intravenous (i.v.) injection and individual cumulative food intake was measured after 30 min. GABAARγ2 peptides are represented as blue stars, while murine RecACBP/DBI is represented as red circles (A). […] C, D Immunoblots and densitometric quantification of LC3 lipidation in liver tissues from mice treated with GABAARγ2-derived eicosapeptides (EP) WT with or without the autophagy flux inhibitor leupeptin (n = 5 mice per group). p values were calculated by unpaired one-tailed Student’s t-test. E–G Inhibition of concanavalin A hepatotoxicity. GABAARγ2 WT peptide (or negative vehicle) was i.v. injected to C57BL/6 male mice followed by concanavalin A (or negative vehicle) administration 1.5 h later (E). Alanine transaminase (ALT) (F) and aspartate transaminase (AST) (G) activity in plasma was analyzed by means of a colorimetric assay (n = 7–9 mice per condition). p values were calculated by unpaired one-tailed Student’s t-test. ns: non-significant. Unt: Untreated.

## INMEYTIDIFFAQTWYDRRL [GABAARγ2-EP-WT]
  protection against concanavalin A hepatotoxicity, in words: attenuate acute hepatotoxicity induced by concanavalin A
N = 7–9
  plasma alanine aminotransferase (ALT) after concanavalin A: significantly blunted the surge
  plasma aspartate aminotransferase (AST) after concanavalin A: significantly blunted the surge
Listed as GABAARγ2-derived eicosapeptide
  protection against concanavalin A hepatotoxicity, in words: protected mice against the hepatotoxin concanavalin A
